Several values for one entry are separate records, joined by “and”; a condition that tells them apart may be missing. Equal entries are not always repeated.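 In this assay, cells in 96-well plates receive the compound at five concentrations for 48 hours. Endpoints are linearly interpolated between the surrounding concentrations. GI50 = concentration required for 50% inhibition of growth. TGI: total growth inhibition.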
What was measured:
Assay in all cases: NCI tumour cell line growth inhibition, 48 h
786-0 renal = test system: 786-0 renal
CAKI-1 renal = test system: CAKI-1 renal
NCI-H522 lung = test system: NCI-H522 lung
OVCAR-8 ovarian = test system: OVCAR-8 ovarian
SK-MEL-28 melanoma = test system: SK-MEL-28 melanoma
SW-620 colon = test system: SW-620 colon
UACC-62 melanoma = test system: UACC-62 melanoma
SK-MEL-2 melanoma = test system: SK-MEL-2 melanoma
MCF7 breast = test system: MCF7 breast
BT-549 breast = test system: BT-549 breast

SMILES	TGI (786-0 renal)	TGI (CAKI-1 renal) [µM]	TGI (NCI-H522 lung)	TGI (OVCAR-8 ovarian)	TGI (SK-MEL-28 melanoma)	TGI (SW-620 colon) [µM]	TGI (UACC-62 melanoma) [µM]	TGI (SK-MEL-2 melanoma)	GI50 (786-0 renal)	GI50 (CAKI-1 renal) [µM]	GI50 (MCF7 breast)	TGI (MCF7 breast)	GI50 (NCI-H522 lung)	GI50 (OVCAR-8 ovarian) [µM]	GI50 (SK-MEL-2 melanoma) [µM]	GI50 (SK-MEL-28 melanoma)	GI50 (SW-620 colon) [µM]	GI50 (UACC-62 melanoma)	GI50 (BT-549 breast)	TGI (BT-549 breast) [µM]
O=[P+](O)c1ccccn1	> 100 µM	> 100	> 100 µM	> 100 µM	> 100 µM	> 100	> 100													
Cc1cccc(C)c1NC(=O)CCc1nnc2s/c(=C\c3ccc(N(C)C)cc3)c(=O)n12	> 100 µM	> 100	> 100 µM	> 100 µM	> 100 µM	> 100	> 100	> 100 µM												
Cc1cc(N(CCC#N)CCC#N)ccc1N=Nc1cc(Cl)ccc1Cl	28.9 µM	9.68	3.41 µM		21.1 µM	6.5	21.7	33.8 µM												
C/C(=N\NC(N)=S)c1ccc(C)c(C)c1	> 100 µM	> 100		> 100 µM	> 100 µM	> 100	> 100	> 100 µM												
CCC1C(C)C=NN1c1nc(N)nc(C(C#N)=Nc2ccc(N(C)C)cc2)n1 (configuration not stated)	> 50 µM	20.8	> 50 µM	31 µM	18.4 µM	26.8	> 50	> 50 µM	17.4 µM	9.06	9.76 µM	17.8 µM	> 50 µM	10.6	32.2	8.61 µM	12.1	14.6 µM		
O=c1c2cc(Br)cc(Br)c2nc(CCCl)n1-c1ccc(O)c([N+](=O)[O-])c1	32.4 µM		23.5 µM	41.6 µM	35.4 µM	36.2	47.3	34.6 µM												
C=C1c2ccccc2C(=O)c2c1c1c(C(=O)OC)c(OC(=O)OCc3ccc([N+](=O)[O-])cc3)ccc1n2Cc1ccccc1	26 µM	58.2	38.6 µM	> 100 µM		> 100	22.6	> 100 µM	7.17 µM	20.3	13.4 µM	43.2 µM	6.83 µM	2.51	23.9		5.63	10.5 µM	3.21 µM	9.48
CCOC(=O)C1C=C2O[C@@H]3OC4(CCCCC4)O[C@@H]3C2C2C(=O)CCC(=O)[C@@]12C(=O)OC (some centres not stated)	> 100 µM	> 100	> 100 µM	> 100 µM	> 100 µM	> 100	> 100	> 100 µM												
O=C(Cc1nc2sc3c(c2c(=O)[nH]1)CCCC3)Nc1ccccc1	> 100 µM	> 100	> 100 µM	> 100 µM	> 100 µM	> 100	> 100	> 100 µM												
CCCCCCCCCCCCCCCCCCNCc1ccc(Cl)cc1	25.1 µM		8.73 µM	16.6 µM	28.8 µM	4.03	15.5	25.9 µM	8.61 µM		2.93 µM	11.5 µM	2.52 µM	4.08	8.65	13.8 µM	1.87	4.02 µM	17.3 µM	42.2
C[C@]12CC[C@@H]3c4ccc(O)cc4CC[C@H]3[C@@H]1CC[C@@H]2NS(=O)(=O)c1ccc(Br)cc1	8.86 µM	10.2		11.3 µM	5.09 µM	13.1	3.68	5.3 µM	3.07 µM	3.12	2.26 µM	4.64 µM		3.14	2.35	2.19 µM	3.35	1.76 µM	2.27 µM	4.72
C[C@H]1C/C=C/[C@H]2[C@@H]3O[C@]3(C)[C@@H](C)[C@H]3[C@H](Cc4ccccc4)NC(=O)[C@]32OC(=O)O/C=C/[C@@](C)(O)C1=O	63.5 µM	0.0428	4.24 µM and 12.3 µM and 39.8 µM	89.7 µM and 125 µM and > 250 µM				38.6 µM and 125 µM			0.0125 µM and 0.025 µM	64.4 µM and 125 µM and 67.2 µM	0.0125 µM and 0.025 µM	15	34.2	0.0204 µM and 0.047 µM		0.0652 µM and 0.025 µM		
CCc1cccc(C(C)C)c1NC(=O)CCl	> 100 µM	> 100	> 100 µM		> 100 µM	> 100	> 100	> 100 µM												
CCCCC(C)/C=C/C(=O)C1=C(O)/C(=C/C(=O)O)OC1=O (configuration not stated)	> 100 µM			> 100 µM	> 100 µM	> 100	> 100	> 100 µM												
O=C(O)c1cc2ccccc2c2c3c(ccc12)OCO3	936 µM	761		717 µM	491 µM	> 1000	279	333 µM	273 µM	185	227 µM	895 µM		186	166	167 µM	245	116 µM	119 µM	390
C/C(=N\NC(=O)C[N+](C)(C)C)c1sc(-c2cccnc2)nc1C	> 100 µM		> 100 µM	> 100 µM	> 100 µM	> 100	> 100	> 100 µM												
Cc1coc2c1C(=O)C(=O)c1ccccc1-2	3.24 µM	3.63		1.25 µM	3.09 µM	2.92	3.25	3.78 µM												
C[N+](C)(C)CC1CCC(C[N+](C)(C)C)C1=O (configuration not stated)	4.06 µM	1.55		38 µM	11.1 µM	2.86	17.9	36.9 µM				6.05 µM		14.3		5.99 µM	1.18			30.7
COC(=O)CCC(=O)N1C/C(=C\c2ccccc2)C(=O)/C(=C/c2ccccc2)C1	3.75 µM	3.22		14.6 µM	4.24 µM	0.389	3.61													
N#Cc1ccc(/C=C(/C(=O)c2ccccc2)c2ccccc2)cc1	15.5 µM	32.1	29.2 µM	22.1 µM	32.7 µM	7.31	31.2	33.2 µM												
S=c1o[nH]c(-c2ccccc2)c1C=Nc1ccccc1	> 100 µM	> 100	> 100 µM	> 100 µM	> 100 µM	> 100	> 100	> 100 µM												
COc1cc(-n2cc(-c3ccccc3)[nH]c2=O)cc(OC)c1OC	91.1 µM	> 100	> 100 µM		> 100 µM	> 100	> 100	> 100 µM	23.7 µM	37.8	44.9 µM	> 100 µM	27.2 µM		> 100	31.4 µM	> 100	36.9 µM		

SMILES	TGI (786-0 renal)	TGI (CAKI-1 renal) [µM]	TGI (NCI-H522 lung)	TGI (OVCAR-8 ovarian)	TGI (SK-MEL-28 melanoma)	TGI (SW-620 colon) [µM]	TGI (UACC-62 melanoma) [µM]	TGI (SK-MEL-2 melanoma)	GI50 (786-0 renal)	GI50 (CAKI-1 renal) [µM]	GI50 (MCF7 breast)	TGI (MCF7 breast)	GI50 (NCI-H522 lung)	GI50 (OVCAR-8 ovarian) [µM]	GI50 (SK-MEL-2 melanoma) [µM]	GI50 (SK-MEL-28 melanoma)	GI50 (SW-620 colon) [µM]	GI50 (UACC-62 melanoma)	GI50 (BT-549 breast)	TGI (BT-549 breast) [µM]
Cn1c(=O)nc2n(-c3ccc(Cl)cc3)c(-c3ccccc3)c(-c3ccccc3)nc-2c1=O	> 100 µM	> 100	> 100 µM	> 100 µM	86.2 µM	> 100	32.5	60 µM												
O=c1c2ccccc2[nH]c2c(O)ccc(O)c12	38.8 µM	30.4	29 µM	35.2 µM	35.2 µM	36.1	33.5	> 100 µM												
O=C1/C(=C/c2ccc3c(c2)OCCO3)CCC/C1=C\c1ccc2c(c1)OCCO2	> 100 µM	> 100	92.3 µM	30.6 µM	77.2 µM	> 100	61.3													
CCOC(=O)C(Cc1c[nH]c2cc(N(CCO)CCO)ccc12)(NC(C)=O)C(=O)OCC	> 1000 µM		> 1000 µM	> 1000 µM	> 1000 µM	> 1000	> 1000		919 µM		26.6 µM and 135 µM	815 µM	61.9 µM	697		636 µM	398	66.8 µM	69.3 µM and 459 µM	> 1000
CN(C)CCC(/C=C/c1ccccc1)=N\Nc1ccc(Cl)c(Cl)c1	9.26 µM	7.03	4.41 µM	7.8 µM	22.6 µM	13.3	7.25	6.31 µM												
Cc1ccccc1NC(=O)/C=N/O	> 100 µM	> 100	> 100 µM	> 100 µM	> 100 µM	> 100	27.9	> 100 µM												
COC(=O)c1cccc2c3ccccc3c3ccccc3c12	> 100 µM	> 100	80.9 µM	58.2 µM	> 100 µM	> 100	> 100	58.7 µM												
Cc1cccc(C)c1NC(=O)CCC/C(CC(=O)c1ccc(F)cc1)=N\NC(=O)C(=O)NN	> 100 µM	> 100		> 100 µM	> 100 µM	> 100	> 100	> 100 µM												
CC1=C(C(=O)NCc2ccccc2)C(c2ccc(Cl)c(Cl)c2)C(C(=O)NCc2ccccc2)=C(C)N1	> 100 µM		> 100 µM	> 100 µM	> 100 µM	> 100	> 100	> 100 µM												
Nc1nonc1-c1nc2ccccc2n1Cc1ccc(F)cc1	> 100 µM	> 100	> 100 µM	> 100 µM	> 100 µM	> 100	> 100		29.1 µM	3.48	3.78 µM	> 100 µM	4.42 µM	> 100		7.89 µM	3.54	4.63 µM	9.8 µM	> 100
Cc1ccc(S(=O)(=O)NC(=O)NCCc2ccccc2)cc1	> 100 µM	> 100	> 100 µM	> 100 µM	> 100 µM	> 100	> 100	> 100 µM												
CCCCCCCCOCC(O)CO (configuration not stated)	> 100 µM	> 100	> 100 µM	> 100 µM	> 100 µM	> 100	> 100	> 100 µM												
CC[C@@]1(OC(=O)C(N)CCCCN)C(=O)OCc2c1cc1n(c2=O)Cc2cc3ccccc3nc2-1 (some centres not stated)	0.163 µM	0.158	2.39 µM	3.1 µM	16.1 µM	> 28.7	0.0707	1.39 µM												10.9
Nc1ccc(-c2cc(C(=O)Nc3nccs3)[nH]c(=S)n2)cc1	> 100 µM	> 100	> 100 µM	> 100 µM	> 100 µM	> 100	> 100	> 100 µM												
CCOC(=O)C(=O)Nc1cc(Cl)c(Cl)cc1Cl	> 100 µM	> 100	> 100 µM	> 100 µM	> 100 µM	> 100	> 100	> 100 µM												
O=C(O)[C@@H]1OCCOCCO[C@@H](C(=O)O)[C@H](C(=O)O)OCCOCCO[C@H]1C(=O)O	> 100 µM	> 100	> 100 µM	> 100 µM	> 100 µM	> 90.1	> 100	> 100 µM												
Nc1ncnc2c1ncn2C1OC(COS(N)(=O)=O)C(O)C1O (configuration not stated)	0.00465 µM and 0.0433 µM		0.0148 µM	0.00394 µM	0.00521 µM and 0.0509 µM				0.00213 µM and 0.0204 µM					< 0.001		0.00225 µM and 0.0221 µM			0.00266 µM and 0.0266 µM	
C1OC1CN1CCN(CC2CO2)CC1 (configuration not stated)	> 100 µM	> 100	> 100 µM	> 100 µM	> 100 µM	> 100	> 68.5	> 100 µM												
O=C1CC(c2c(-c3ccccc3)[nH]c3ccccc23)C(=O)N1c1ccccc1 (configuration not stated)	> 100 µM	> 100		> 100 µM	> 100 µM	> 100	> 100	> 100 µM												
CCC/C=C\C=C\C1(NS(=O)(=O)c2ccc(C)cc2)CCC(C(C)(C)C)CC1 (configuration not stated)	29.9 µM	61.9	12.1 µM			35.7	88.7	29 µM												
COCCOCCOCc1n(Cc2ccc3ccccc3c2)c2ccccc2[n+]1Cc1ccc2ccccc2c1	2.65 µM		1.3 µM	1.74 µM	1.92 µM	2.2	1.45	0.941 µM	1.31 µM		0.325 µM	1.45 µM	0.303 µM	0.421	0.313	0.503 µM	0.624	0.329 µM	0.366 µM	1.53

Source: PubChem BioAssay (NCI)
